Reference: BindingDB's records for doi:10.1016/j.bmcl.2018.11.015 (Boehringer Ingelheim Pharmaceuticals, 2019)

Experiment: Antagonist activity at CCR1 in human THP1 cells assessed as inhibition of chemotaxis after 30 mins by Celltiter-glo reagent based luminescence assay

Row | IC50 | Compound
1 | 1.5 nM | CC(C)[C@@H](NC(=O)NCC(C)(C)O)C(=O)N1CC[C@](O)(c2ccc(Cl)cc2)C(C)(C)C1
2 | 1200 nM | Cc1c(C(=O)NCc2cccc(C(F)(F)F)c2)cnn1-c1ccc(Cl)c(Cl)c1
3 | 4 nM | COc1cc(N2CCN(C(=O)Cn3nc(-c4ncc[nH]4)c4cccnc43)CC2)ccc1Cl

Row | Compound | IC50
4 | CC(C)(O)c1ccc2c(c1)/C(=C\CCN1CC[C@](O)(c3ccc(Cl)cc3)C(C)(C)C1)c1cccnc1CO2 | 1.8 nM
